# Experimental data reported in the SangsterLogP compilation.
# Assay: method code SF-AS, from PMID: 7324974
# Details: pH 5.0
row,Compound,logD
1,CCOC(=O)c1cnc2ccccn2c1=O,0.25
2,CCOC(=O)C1=CNC2CCCCN2C1=O (centres undefined),0.57
3,CCN1C=C(C(N)=O)C(=O)N2C(C)CCCC12 (centres undefined),0.6
4,Cc1cnc2ccccn2c1=O,0.77
5,CCOC(=O)c1cnc2ccc(C)cn2c1=O,0.9
6,CCOC(=O)C1=CNC2CCCC(C)N2C1=O (centres undefined),0.79
7,CCc1cccc2nc(C)cc(=O)n12,1.63
8,CCc1nc2cccc(C)n2c(=O)c1C,1.87
9,CCOC(=O)c1cnc2cccc(C)n2c1=O,0.96
10,CCc1cc(=O)n2c(C)cccc2n1,1.59
11,CCCc1nc2cccc(C)n2c(=O)c1CC,2.37
12,CC1CCCC2N(C)C=C(C(N)=O)C(=O)N12 (centres undefined),0.22
13,CC1CCCC2NC=C(C(N)=O)C(=O)N12 (centres undefined),0.51
14,CCOC(=O)C1=CN(C)C2CCCC(C)N2C1=O (centres undefined),0.45
15,Cc1cccc2ncc(-c3ccccc3)c(=O)n12,2.59
16,CCOC(=O)c1cnc2c(C)cccn2c1=O,1.16
17,CCOC(=O)c1cnc2cc(C)ccn2c1=O,0.87
18,Cc1cc(=O)n2c(C)cccc2n1,1.05
19,CC1CCC=C2N(C)C=C(C(N)=O)C(=O)N21 (centres undefined),0.12

# The remaining lines, values ahead:
row,logD,Compound
1,-0.25,COC(=O)c1cnc2n(c1=O)CCCC2
2,0.99,COC(=O)c1cnc2n(c1=O)C(C(C)C)CCC2 (centres undefined)
3,0.04,CC1CCCc2ncc(C(N)=O)c(=O)n21 (centres undefined)
4,0.16,COC(=O)c1cnc2n(c1=O)C(C)CCC2 (centres undefined)
5,1.77,CCCCC1CCCc2ncc(C(=O)OC)c(=O)n21 (centres undefined)
6,0.15,CCOC(=O)c1cnc2n(c1=O)CCCC2
7,0.62,CCOC(=O)c1cnc2n(c1=O)C(C)CCC2 (centres undefined)
8,0.66,CCOC(=O)c1cnc2n(c1=O)CCC(C)C2 (centres undefined)
9,1.14,CCCC1CCCc2ncc(C(=O)OC)c(=O)n21 (centres undefined)
10,0.71,CCOC(=O)c1cnc2n(c1=O)CC(C)CC2 (centres undefined)
